Measurements reported in patent US20210156844A1, “TMEM16A Modulation for Diagnostic or Therapeutic Use in Pulmonary Hypertension (PH)” (Bayer Aktiengesellschaft, priority 2017, published 2021).

Key:
[1] = test system: U-46619 preconstricted isolated mouse PA; experiment: Measurement of pulmonary artery tone ex vivo; conditions: cumulatively increasing concentrations 0.1 to 30 μM; U-46619 30 nM
Experimental: Pulmonary artery rings were isolated from male C57BL/6J mice (20-25 weeks old, Charles River, Wilmington Mass., USA), as described by Jain et al. (Jain, P P, et al., Int. J. Nanomedicine (2014) 9, 3249-3261). Following stable contraction (approx. 30 minutes post-addition of U-46619, 30 nM), the arteries were subjected to cumulatively increasing concentrations (0.1 to 30 μM) of the TMEM6A blockers T16Ainh-A01 (Tocris) and benzbromarone (Sigma) in order to analyze the concentration-response relationships.

PASMC = experiment: Membrane potential (Em) measurement, current clamp, primary PASMC; format: cell-based, human; conditions: BBR 30 μM, T16Ainh-A01 10 μM
Experimental: PASMC were grown on glass coverslips and serum starved for 24-48 hours. The coverslips were perfused with a bath solution composed of (in mM) NaCl 141, KCl 4.7, HEPES 10, glucose 10, CaCl2 1.8, MgCl2 1.2, pH 7.4 (NaOH) at room temperature. Micropipettes were pulled of borosilicate glass capillaries (GC150F-10, Harvard Apparatus Ltd, Edenbridge, Kent, UK) with a P-2000 electrode puller (Sutter Instruments, Novato Ca, USA), and fire polished using a micro-forge (MF-830, Narishige, Tokyo, Japan) to give a final resistance of 3-5 MΩ when filled with the pipette solution (composition in mM: NaCl 10, KCl 125, K2ATP 5, HEPES 10, EGTA 5, MgCl2 4, pH set to 7.2 with KOH). Em was measured with a HEKA EPC10 patch clamp amplifier (Dr. Schulze GmbH, Lambrecht, Germany) in the current clamp mode as described by others (Mason, M J, et al., Biophys. J. (2005) 88, 739-750; Perkins, KL, J. Neurosci. Methods (2006) 154, 1-18).
The liquid junction potential was calculated with the Clampex 10.0 software (Molecular Devices, Sunnyvale Calif., USA) and an online correction was made for each recording. Both at baseline and during perfusion with 30 μM benzbromarone (BBR, Sigma, St Louis Mo., USA) or 10 μM T16Ainh-A01 (Tocris, Bristol, UK), only those recordings in which (1) the Em was constant for at least 3 minutes, and (2) the seal resistance was constantly high (>5 GΩ) were used for the analyses.
The HEK-293 cells were transfected overnight either with the CLCA1 gene containing or with the empty plasmid, using the Effectene transfection reagent kit (Qiagen) and DMEM F-12 complete medium. On the next day, the medium was changed to serum-free SMC Medium. The resulting conditioned media were collected 24 hours later and applied on the PASMC of healthy donors. After 24 hours of incubation, the Em of the PASMC was measured as described above. To confirm the presence of CLCA1 in the conditioned medium, 20 μL of conditioned medium as well as control medium (collected from cells transfected with the empty plasmide) were analyzed with western blot as described above, using a CLCA1 antibody (ab108851, Abcam).

CCc1c(C)nc(SCC(=O)Nc2nc(-c3ccc(OC)cc3)cs2)[nH]c1=O [T16Ainh-A01, 2-[(5-Ethyl-1,6-dihydro-4-methyl-6-oxo-2-pyrimidinyl)thio]-N-[4-(4-methoxyphenyl)-2-thiazolyl]-acetamide] was tested, and the “vasorelaxation of preconstricted PA” value [1] was “dose-dependent vasorelaxation”, the “reversal of the Em of IPAH-PASMC to the levels of PASMC isolated from healthy donors” value (PASMC; PASMC of IPAH patients) was “close” and the “effect on Em of PASMC of donors” value (PASMC; PASMC of healthy donors) was “no effect”.
